According to ChEMBL document CHEMBL1800008, “Design, synthesis and reactivity of C2-symmetric azobenzene-based amino acid-bis(propargyl sulfones)” (Bioorg Med Chem Lett, 2010):
Activity calls are given as the source filed them. The rule behind the calls is not given here.

Assays:
Assay type in all cases: nucleic-acid assay
[1] = test system: Nucleic Acid; assay: Binding affinity to calf thymus DNA by absorption titration analysis; conditions: Bos taurus
[2] = test system: Nucleic Acid; assay: Induction of Escherichia coli supercoiled pBR322 DNA cleavage at 0.02 mM after 48 hrs by gel electrophoresis analysis
[3] = test system: Nucleic Acid; assay: Induction of Escherichia coli supercoiled pBR322 DNA cleavage at 0.02 mM after 48 hrs by densitometric analysis

Compound	K [1] [×10⁴ /M]	Activity [2] [%]	Activity [3]
CC(C)[C@H](NC(=O)COc1ccccc1/N=N/c1ccccc1OCC(=O)N[C@H](C(=O)OCC#CCS(=O)(=O)c1ccccc1)C(C)C)C(=O)OCC#CCS(=O)(=O)c1ccccc1	11	20	Active
O=C(COc1ccccc1/N=N/c1ccccc1OCC(=O)N[C@@H](Cc1ccccc1)C(=O)OCC#CCS(=O)(=O)c1ccccc1)N[C@@H](Cc1ccccc1)C(=O)OCC#CCS(=O)(=O)c1ccccc1	9	10	Active
O=S(=O)(CC#CCOc1ccccc1/N=N/c1ccccc1OCC#CCS(=O)(=O)c1ccccc1)c1ccccc1		25	
